Experiments:
[1] = target: T1, 5-hydroxytryptamine receptor 2A (Homo sapiens, UniProt P28223); experiment: Displacement of [3H]Ketanserin from human 5HT2A receptor at 10 uM
[2] = target: T2, 5-hydroxytryptamine receptor 2B (Homo sapiens, UniProt P41595); experiment: Displacement of [3H]LSD from human 5HT2B receptor at 10 uM
[3] = target: T3, 5-hydroxytryptamine receptor 2C (Homo sapiens) (UniProt P28335); experiment: Displacement of [3H]Mesulergine from human 5HT2C receptor at 10 uM
T3 sequence (whole entry): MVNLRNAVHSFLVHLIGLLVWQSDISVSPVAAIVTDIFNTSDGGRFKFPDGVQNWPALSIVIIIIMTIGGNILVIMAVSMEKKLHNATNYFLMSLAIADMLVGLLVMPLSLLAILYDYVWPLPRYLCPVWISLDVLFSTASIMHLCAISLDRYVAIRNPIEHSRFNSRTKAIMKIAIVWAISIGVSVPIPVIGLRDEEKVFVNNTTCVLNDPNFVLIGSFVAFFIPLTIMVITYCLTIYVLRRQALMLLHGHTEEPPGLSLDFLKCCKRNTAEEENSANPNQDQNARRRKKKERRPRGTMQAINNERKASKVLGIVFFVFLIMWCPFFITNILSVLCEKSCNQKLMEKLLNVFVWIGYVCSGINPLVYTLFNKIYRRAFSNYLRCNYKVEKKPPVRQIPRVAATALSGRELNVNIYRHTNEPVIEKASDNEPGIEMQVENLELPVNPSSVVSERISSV

[4] = target: T1, 5-hydroxytryptamine receptor 2A; experiment: Displacement of [3H]Ketanserin from human 5HT2A receptor
[5] = target: T4, 5-hydroxytryptamine receptor 2C (Homo sapiens, UniProt P28335); experiment: Displacement of [3H]Mesulergine from human 5HT2C receptor
T4 sequence (P28335 whole entry): T3 sequence (whole entry)

[6] = target: T2, 5-hydroxytryptamine receptor 2B; experiment: Displacement of [3H]LSD from human 5HT2B receptor
[7] = target: 5-hydroxytryptamine receptor 1D (Homo sapiens) (UniProt P28221); experiment: Displacement of [3H][…] from human 5HT1D receptor at 10 uM
[8] = target: 5-hydroxytryptamine receptor 3A (Homo sapiens) (UniProt P46098); experiment: Displacement of [3H]LY278584 from human 5HT3 receptor at 10 uM
[9] = target: Muscarinic acetylcholine receptor M1 (Homo sapiens) (UniProt P11229); experiment: Displacement of [3H]QNB from human muscarinic M1 receptor at 10 uM
[10] = target: Kappa-type opioid receptor (Homo sapiens) (UniProt P41145); experiment: Displacement of [3H]U69593 from human kappa opioid receptor at 10 uM
[11] = target: D(2) dopamine receptor (Homo sapiens) (UniProt P14416); experiment: Displacement of [3H]N-methylspiperone from human dopamine D2 receptor at 10 uM
[12] = target: Muscarinic acetylcholine receptor M3 (Homo sapiens) (UniProt P20309); experiment: Displacement of [3H]QNB from human muscarinic M3 receptor at 10 uM
[13] = target: T4, 5-hydroxytryptamine receptor 2C; experiment: Agonist activity at human 5HT2C receptor assessed as 10633-induced calcium mobilization by FLIPR assay; assay type: functional
[14] = target: Histamine H2 receptor (Homo sapiens) (UniProt P25021); experiment: Displacement of [3H]Tiotidine from human histamine H2 receptor at 10 uM
[15] = target: T5, Sodium-dependent noradrenaline transporter (Homo sapiens, UniProt P23975); experiment: Displacement of [3H]Nisoxetine from human NET
[16] = target: Beta-1 adrenergic receptor (Homo sapiens) (UniProt P08588); experiment: Displacement of [125I]Iodopindolol from human adrenergic beta-1 receptor at 10 uM
[17] = target: 5-hydroxytryptamine receptor 1A (Homo sapiens) (UniProt P08908); experiment: Displacement of [3H]8-OH-DPAT from human 5HT1A receptor at 10 uM
[18] = target: Histamine H1 receptor (Homo sapiens) (UniProt P35367); experiment: Displacement of [3H]Pyrilamine from human histamine H1 receptor at 10 uM
[19] = target: Beta-2 adrenergic receptor (Homo sapiens) (UniProt P07550); experiment: Displacement of [125I]Iodopindolol from human adrenergic beta2 receptor at 10 uM
Homo sapiens = organism: Homo sapiens; experiment: Displacement of [3H]DTG from human sigma 2 receptor at 10 uM
[20] = target: T6, Sodium-dependent serotonin transporter (Homo sapiens, UniProt P31645); experiment: Displacement of [3H]Citalopram from human SERT at 10 uM
[21] = target: T2, 5-hydroxytryptamine receptor 2B; experiment: Agonist activity at human 5HT2B receptor assessed as 5HT-induced calcium mobilization by FLIPR assay; assay type: functional
[22] = target: Mu-type opioid receptor (Homo sapiens) (UniProt P35372); experiment: Displacement of [3H]DAMGO from human mu opioid receptor at 10 uM
[23] = target: T7, Sodium-dependent dopamine transporter (Homo sapiens, UniProt Q01959); experiment: Displacement of [3H][…] from human DAT
[24] = target: 5-hydroxytryptamine receptor 1B (Homo sapiens) (UniProt P28222); experiment: Displacement of [3H][…] from human 5HT1B receptor at 10 uM
[25] = target: T2, 5-hydroxytryptamine receptor 2B; experiment: Agonist activity at human 5HT2B receptor assessed as 5HT-induced calcium mobilization at 10 uM by FLIPR assay relative to 5HT; assay type: functional
[26] = target: 5-hydroxytryptamine receptor 5A (Homo sapiens) (UniProt P47898); experiment: Displacement of [3H]LSD from human 5HT5A receptor at 10 uM
[27] = target: Muscarinic acetylcholine receptor M4 (Homo sapiens) (UniProt P08173); experiment: Displacement of [3H]QNB from human muscarinic M4 receptor at 10 uM
[28] = target: T5, Sodium-dependent noradrenaline transporter; experiment: Displacement of [3H]Nisoxetine from human NET at 10 uM
[29] = target: Sigma non-opioid intracellular receptor 1 (Homo sapiens) (UniProt Q99720); experiment: Displacement of [3H]Pentazocine from human sigma 1 receptor at 10 uM
[30] = target: D(4) dopamine receptor (Homo sapiens) (UniProt P21917); experiment: Displacement of [3H]N-methylspiperone from human dopamine D4 receptor at 10 uM
[31] = target: T6, Sodium-dependent serotonin transporter; experiment: Displacement of [3H]Citalopram from human SERT
[32] = target: Muscarinic acetylcholine receptor M2 (Homo sapiens) (UniProt P08172); experiment: Displacement of [3H]QNB from human muscarinic M2 receptor at 10 uM
[33] = target: T4, 5-hydroxytryptamine receptor 2C; experiment: Agonist activity at human 5HT2C receptor assessed as 5HT-induced calcium mobilization by FLIPR assay; assay type: functional
[34] = target: 5-hydroxytryptamine receptor 7 (Homo sapiens) (UniProt P34969); experiment: Displacement of [3H]LSD from human 5HT7 receptor at 10 uM
[35] = target: Muscarinic acetylcholine receptor M5 (Homo sapiens) (UniProt P08912); experiment: Displacement of [3H]QNB from human muscarinic M5 receptor at 10 uM
[36] = target: Histamine H3 receptor (Homo sapiens) (UniProt Q9Y5N1); experiment: Displacement of [3H]alpha-methylhistamine from human histamine H3 receptor at 10 uM
[37] = target: Beta-3 adrenergic receptor (Homo sapiens) (UniProt P13945); experiment: Displacement of [125I]Iodopindolol from human adrenergic beta3 receptor at 10 uM
[38] = target: Alpha-1A adrenergic receptor (Homo sapiens) (UniProt P35348); experiment: Displacement of [3H]Prazosin from human adrenergic alpha1A receptor at 10 uM
[39] = target: 5-hydroxytryptamine receptor 1E (Homo sapiens) (UniProt P28566); experiment: Displacement of [3H]5-HT from human 5HT1E receptor at 10 uM
[40] = target: D(3) dopamine receptor (Homo sapiens) (UniProt P35462); experiment: Displacement of [3H]N-methylspiperone from human dopamine D3 receptor at 10 uM
[41] = target: T2, 5-hydroxytryptamine receptor 2B; experiment: Antagonist activity at human 5HT2B receptor assessed as inhibition of 10633-induced calcium mobilization by FLIPR assay; assay type: functional
[42] = target: D(1A) dopamine receptor (Homo sapiens) (UniProt P21728); experiment: Displacement of [3H][…] from human dopamine D1 receptor at 10 uM
[43] = target: T2, 5-hydroxytryptamine receptor 2B; experiment: Agonist activity at human 5HT2B receptor assessed as 10633-induced calcium mobilization by FLIPR assay; assay type: functional
[44] = target: Delta-type opioid receptor (Homo sapiens) (UniProt P41143); experiment: Displacement of [3H]DADLE from human delta opioid receptor at 10 uM
[45] = target: T7, Sodium-dependent dopamine transporter; experiment: Displacement of [3H][…] from human DAT at 10 uM
[46] = target: Histamine H4 receptor (Homo sapiens) (UniProt Q9H3N8); experiment: Displacement of [3H]Histamine from human histamine H4 receptor at 10 uM

T1 sequence (P28223 whole entry): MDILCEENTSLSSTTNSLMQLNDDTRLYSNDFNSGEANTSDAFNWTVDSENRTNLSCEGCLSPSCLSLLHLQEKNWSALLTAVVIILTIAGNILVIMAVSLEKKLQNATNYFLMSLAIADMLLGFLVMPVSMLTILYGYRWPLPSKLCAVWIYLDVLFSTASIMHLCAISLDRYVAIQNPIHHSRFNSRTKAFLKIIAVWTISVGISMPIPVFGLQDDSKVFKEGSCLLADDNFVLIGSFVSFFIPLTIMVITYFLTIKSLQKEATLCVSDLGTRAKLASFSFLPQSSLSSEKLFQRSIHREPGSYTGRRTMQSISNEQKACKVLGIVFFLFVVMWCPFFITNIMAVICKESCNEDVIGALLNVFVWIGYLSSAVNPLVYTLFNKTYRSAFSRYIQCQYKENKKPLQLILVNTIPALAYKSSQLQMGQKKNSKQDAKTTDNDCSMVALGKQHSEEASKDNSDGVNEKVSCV
T2 sequence (P41595 whole entry): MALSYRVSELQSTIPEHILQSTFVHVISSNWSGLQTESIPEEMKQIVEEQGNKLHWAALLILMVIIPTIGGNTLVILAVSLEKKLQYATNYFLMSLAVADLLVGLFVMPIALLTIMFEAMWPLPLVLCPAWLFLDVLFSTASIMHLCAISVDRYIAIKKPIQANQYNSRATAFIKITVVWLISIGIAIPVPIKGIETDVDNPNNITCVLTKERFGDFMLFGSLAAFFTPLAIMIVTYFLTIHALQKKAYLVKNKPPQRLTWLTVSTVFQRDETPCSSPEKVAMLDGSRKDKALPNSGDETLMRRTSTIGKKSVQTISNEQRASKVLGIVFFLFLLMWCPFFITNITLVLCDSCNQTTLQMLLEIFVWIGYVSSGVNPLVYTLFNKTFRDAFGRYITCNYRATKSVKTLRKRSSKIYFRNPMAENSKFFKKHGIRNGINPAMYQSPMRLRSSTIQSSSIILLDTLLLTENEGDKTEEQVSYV
T7 sequence (Q01959 whole entry): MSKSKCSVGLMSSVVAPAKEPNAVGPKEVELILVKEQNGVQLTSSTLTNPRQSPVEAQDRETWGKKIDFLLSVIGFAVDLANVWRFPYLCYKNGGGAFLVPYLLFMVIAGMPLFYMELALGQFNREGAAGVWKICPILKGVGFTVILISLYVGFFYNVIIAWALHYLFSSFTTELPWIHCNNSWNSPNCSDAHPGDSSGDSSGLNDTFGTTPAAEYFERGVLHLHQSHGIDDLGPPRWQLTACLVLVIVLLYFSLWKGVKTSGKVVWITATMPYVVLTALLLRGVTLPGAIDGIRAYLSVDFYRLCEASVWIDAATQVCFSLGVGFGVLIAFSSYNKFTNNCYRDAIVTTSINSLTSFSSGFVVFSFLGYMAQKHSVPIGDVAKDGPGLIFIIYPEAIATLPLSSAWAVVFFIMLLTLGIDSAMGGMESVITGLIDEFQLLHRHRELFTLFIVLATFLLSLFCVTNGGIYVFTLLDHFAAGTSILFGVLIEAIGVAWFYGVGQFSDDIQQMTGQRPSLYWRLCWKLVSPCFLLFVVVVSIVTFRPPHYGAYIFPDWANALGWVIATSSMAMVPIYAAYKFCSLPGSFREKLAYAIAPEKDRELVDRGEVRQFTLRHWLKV
T5 sequence (P23975 whole entry): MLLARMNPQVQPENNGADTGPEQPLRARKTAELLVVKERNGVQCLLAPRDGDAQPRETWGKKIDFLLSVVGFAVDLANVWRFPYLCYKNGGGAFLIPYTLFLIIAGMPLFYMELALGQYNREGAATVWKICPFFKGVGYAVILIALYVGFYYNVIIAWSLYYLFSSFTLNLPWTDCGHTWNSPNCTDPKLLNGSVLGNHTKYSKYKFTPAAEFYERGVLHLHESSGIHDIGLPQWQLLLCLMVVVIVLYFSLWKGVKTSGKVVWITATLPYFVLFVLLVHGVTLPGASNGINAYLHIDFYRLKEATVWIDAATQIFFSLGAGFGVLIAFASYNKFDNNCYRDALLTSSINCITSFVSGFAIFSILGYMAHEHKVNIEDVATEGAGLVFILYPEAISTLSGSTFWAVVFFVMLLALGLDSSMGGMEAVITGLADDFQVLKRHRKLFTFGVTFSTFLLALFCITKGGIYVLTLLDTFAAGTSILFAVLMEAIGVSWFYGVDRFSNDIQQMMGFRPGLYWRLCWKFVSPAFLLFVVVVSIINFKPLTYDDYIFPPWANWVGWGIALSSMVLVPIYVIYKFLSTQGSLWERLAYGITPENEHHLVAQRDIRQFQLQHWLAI
Beta-2 adrenergic receptor (Homo sapiens), sequence (P07550 whole entry, looked up): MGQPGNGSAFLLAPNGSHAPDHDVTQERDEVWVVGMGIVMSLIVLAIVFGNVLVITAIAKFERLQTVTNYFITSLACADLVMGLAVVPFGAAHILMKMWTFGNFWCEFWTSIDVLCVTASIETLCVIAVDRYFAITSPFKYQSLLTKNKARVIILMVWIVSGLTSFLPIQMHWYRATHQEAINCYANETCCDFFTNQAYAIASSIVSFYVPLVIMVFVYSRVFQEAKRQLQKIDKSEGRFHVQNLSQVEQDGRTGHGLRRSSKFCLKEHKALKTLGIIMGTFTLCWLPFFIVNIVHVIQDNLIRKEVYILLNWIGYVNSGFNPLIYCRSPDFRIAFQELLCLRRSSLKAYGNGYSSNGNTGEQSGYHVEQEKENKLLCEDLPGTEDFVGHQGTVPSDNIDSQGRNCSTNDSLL
5-hydroxytryptamine receptor 1E (Homo sapiens), sequence (P28566 whole entry): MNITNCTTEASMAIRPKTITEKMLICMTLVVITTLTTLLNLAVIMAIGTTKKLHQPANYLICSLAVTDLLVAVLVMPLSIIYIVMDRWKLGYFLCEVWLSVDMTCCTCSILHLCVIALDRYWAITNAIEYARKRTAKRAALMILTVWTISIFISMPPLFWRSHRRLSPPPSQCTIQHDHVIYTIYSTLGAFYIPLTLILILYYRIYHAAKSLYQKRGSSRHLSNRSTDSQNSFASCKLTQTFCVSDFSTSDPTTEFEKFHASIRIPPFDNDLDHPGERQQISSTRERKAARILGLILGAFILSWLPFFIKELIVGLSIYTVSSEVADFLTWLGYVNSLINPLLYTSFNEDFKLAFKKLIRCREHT
Alpha-1A adrenergic receptor (Homo sapiens), sequence (P35348 whole entry): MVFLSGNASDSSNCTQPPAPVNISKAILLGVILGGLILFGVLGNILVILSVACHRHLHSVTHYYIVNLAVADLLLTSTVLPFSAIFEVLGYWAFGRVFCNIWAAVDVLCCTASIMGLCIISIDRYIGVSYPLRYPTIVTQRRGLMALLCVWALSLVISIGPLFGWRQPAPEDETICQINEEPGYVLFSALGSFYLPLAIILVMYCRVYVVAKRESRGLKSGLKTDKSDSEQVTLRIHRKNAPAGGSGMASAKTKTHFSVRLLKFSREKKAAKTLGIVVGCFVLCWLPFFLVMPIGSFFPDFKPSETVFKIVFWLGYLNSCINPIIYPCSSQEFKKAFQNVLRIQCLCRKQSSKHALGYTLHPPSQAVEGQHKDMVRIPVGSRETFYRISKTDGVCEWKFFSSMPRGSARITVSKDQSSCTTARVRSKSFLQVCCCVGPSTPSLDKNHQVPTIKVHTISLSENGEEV
Histamine H2 receptor (Homo sapiens), sequence (P25021 whole entry): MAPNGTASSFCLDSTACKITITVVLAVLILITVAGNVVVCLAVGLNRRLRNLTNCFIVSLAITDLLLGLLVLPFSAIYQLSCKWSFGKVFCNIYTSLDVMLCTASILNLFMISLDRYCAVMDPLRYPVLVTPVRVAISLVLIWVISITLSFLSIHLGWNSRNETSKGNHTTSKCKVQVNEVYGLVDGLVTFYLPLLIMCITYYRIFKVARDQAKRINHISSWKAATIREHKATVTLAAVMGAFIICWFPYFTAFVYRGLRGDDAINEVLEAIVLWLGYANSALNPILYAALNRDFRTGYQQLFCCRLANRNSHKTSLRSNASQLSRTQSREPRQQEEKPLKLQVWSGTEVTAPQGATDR
Histamine H3 receptor (Homo sapiens), sequence (Q9Y5N1 whole entry): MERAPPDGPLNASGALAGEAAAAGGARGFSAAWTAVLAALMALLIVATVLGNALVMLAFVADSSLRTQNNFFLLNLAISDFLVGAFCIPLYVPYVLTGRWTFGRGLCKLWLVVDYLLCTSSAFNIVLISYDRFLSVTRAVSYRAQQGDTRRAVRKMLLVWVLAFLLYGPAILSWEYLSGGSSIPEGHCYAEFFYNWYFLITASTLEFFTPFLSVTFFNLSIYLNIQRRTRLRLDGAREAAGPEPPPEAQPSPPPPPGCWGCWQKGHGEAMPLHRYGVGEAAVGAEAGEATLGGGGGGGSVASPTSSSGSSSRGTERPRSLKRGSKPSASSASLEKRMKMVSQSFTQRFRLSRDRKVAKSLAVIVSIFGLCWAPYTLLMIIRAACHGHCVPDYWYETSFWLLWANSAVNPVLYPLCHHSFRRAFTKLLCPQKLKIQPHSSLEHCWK
Muscarinic acetylcholine receptor M5 (Homo sapiens), sequence (P08912 whole entry): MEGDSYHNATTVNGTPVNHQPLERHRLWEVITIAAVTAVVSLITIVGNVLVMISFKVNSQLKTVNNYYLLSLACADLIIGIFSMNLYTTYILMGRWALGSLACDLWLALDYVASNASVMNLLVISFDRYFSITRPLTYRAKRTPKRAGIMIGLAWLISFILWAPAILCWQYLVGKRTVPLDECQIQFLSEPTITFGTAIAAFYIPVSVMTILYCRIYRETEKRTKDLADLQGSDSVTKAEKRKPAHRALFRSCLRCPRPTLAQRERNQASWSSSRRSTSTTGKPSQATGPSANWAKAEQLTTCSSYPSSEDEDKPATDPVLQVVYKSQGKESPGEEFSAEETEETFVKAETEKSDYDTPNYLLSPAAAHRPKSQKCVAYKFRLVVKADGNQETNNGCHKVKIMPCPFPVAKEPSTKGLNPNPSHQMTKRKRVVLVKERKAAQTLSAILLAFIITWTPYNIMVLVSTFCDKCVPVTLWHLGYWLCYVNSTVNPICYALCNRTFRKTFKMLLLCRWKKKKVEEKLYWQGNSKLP

O=C(Nc1ccccc1)N1OCC2CSc3ccc(F)cc3C21 (stereo unspecified)
inhibition [1]: 33.6%
inhibition [2]: 95.3%
inhibition [3]: 61.2%
Ki [4]: > 10 µM
Ki [5]: 5.17 µM
Ki [6]: 0.223 µM

O=C(NC1CCCCC1)N1OCC2COc3ccccc3C21 (stereo unspecified)
inhibition [1]: 5.5%
inhibition [2]: 75.5%
inhibition [3]: 28.1%
Ki [4]: > 10 µM
Ki [5]: > 10 µM
Ki [6]: 1.77 µM

CCCCNC(=O)N1OCC2COc3ccccc3C21 (stereo unspecified)
inhibition [1]: 0.8%
inhibition [2]: 35.4%
inhibition [3]: 23.4%
Ki [4]: > 10 µM
Ki [5]: > 10 µM
Ki [6]: > 10 µM

O=C(NC1CCCCC1)N1OCC2CSc3ccc(F)cc3C21 (stereo unspecified)
inhibition [7]: 4.5%
inhibition [8]: -8.7%
inhibition [9]: 23.4%
inhibition [1]: 6.2%
inhibition [10]: 34.6%
inhibition [11]: 8.1%
inhibition [2]: 102%
inhibition [3]: 30%
inhibition [12]: 20.6%
EC50 [13]: > 10 µM
inhibition [14]: 30.8%
Ki [15]: > 10 µM
inhibition [16]: 2.4%
inhibition [17]: 36.9%
inhibition [18]: -4.3%
Ki [4]: > 10 µM
inhibition [19]: 3.7%
inhibition (Homo sapiens): 1.1%
inhibition [20]: 20.4%
EC50 [21]: 0.00398 µM
inhibition [22]: 8.9%
Ki [23]: > 10 µM
Ki [5]: > 10 µM
inhibition [24]: 1.3%
Efficacy [25]: 0.5%
inhibition [26]: 46.6%
inhibition [27]: 44.9%
inhibition [28]: 34.1%
inhibition [29]: 16.5%
inhibition [30]: 12%
Ki [31]: > 10 µM
inhibition [32]: 23.7%
EC50 [33]: 0.000724 µM
inhibition [34]: 27.1%
inhibition [35]: 31.8%
inhibition [36]: -10%
inhibition [37]: 7.1%
inhibition [38]: 37.8%
inhibition [39]: -7.8%
inhibition [40]: 3.2%
IC50 [41]: 0.0427 µM
inhibition [42]: 14%
EC50 [43]: > 10 µM
inhibition [44]: -3.2%
Ki [6]: 0.042 µM
inhibition [45]: 66.3%
inhibition [46]: -0.5%

CC(C)(C)NC(=O)N1OCC2COc3ccccc3C21 (stereo unspecified)
inhibition [1]: 12%
inhibition [2]: 43%
inhibition [3]: 25.9%
Ki [4]: > 10 µM
Ki [5]: > 10 µM
Ki [6]: > 10 µM

O=C(Nc1ccccc1)N1OCC2COc3ccccc3C21 (stereo unspecified)
inhibition [1]: 11%
inhibition [2]: 71.6%
inhibition [3]: 56.7%
Ki [4]: > 10 µM
Ki [5]: > 10 µM
Ki [6]: 1.61 µM

CC(C)NC(=O)N1OCC2CSc3ccc(F)cc3C21 (stereo unspecified)
inhibition [1]: 2.2%
inhibition [2]: 89.3%
inhibition [3]: 55.4%
Ki [4]: > 10 µM
Ki [5]: > 10 µM
Ki [6]: 0.569 µM

CCCNC(=O)N1OCC2CSc3ccc(F)cc3C21 (stereo unspecified)
inhibition [2]: 93%
inhibition [3]: 37.4%
Ki [4]: > 10 µM
Ki [5]: > 10 µM
Ki [6]: 0.384 µM

CC(C)NC(=O)N1OCC2COc3ccccc3C21 (stereo unspecified)
inhibition [1]: -0.2%
inhibition [2]: 14.8%
inhibition [3]: 28.9%
Ki [4]: > 10 µM
Ki [5]: > 10 µM
Ki [6]: > 10 µM

Cc1ccccc1NC(=O)N1OCC2COc3ccccc3C21 (stereo unspecified)
inhibition [1]: 12.8%
inhibition [2]: 52.2%
inhibition [3]: 40.2%
Ki [4]: > 10 µM
Ki [5]: > 10 µM
Ki [6]: 4 µM

CCCCNC(=O)N1OCC2CSc3ccc(F)cc3C21 (stereo unspecified)
inhibition [2]: 92%
inhibition [3]: 34.9%
Ki [4]: > 10 µM
Ki [5]: > 10 µM
Ki [6]: 0.489 µM

CCCNC(=O)N1OCC2COc3ccccc3C21 (stereo unspecified)
inhibition [1]: 2.4%
inhibition [2]: 53.5%
inhibition [3]: 14.7%
Ki [4]: > 10 µM
Ki [5]: > 10 µM
Ki [6]: 6.6 µM

— ChEMBL document CHEMBL1221330, “N-tetrahydrothiochromenoisoxazole-1-carboxamides as selective antagonists of cloned human 5-HT2B” (Bioorg Med Chem Lett, 2010)
